# Experiments:
# [1] = Photo- and thermal stability in the solvent, HPLC
# [2] = Stability in high humidity environment (moisture absorption weight gain); type: physicochemical; settings: 25° C., RH90%±5%
# Experimental: A moisture absorption gain ratio was calculated.
# [3] = pH 7.5
# [4] = test system: primary human corneal epithelial cells; experiment: Hypertonic inflammatory cell model, RT-PCR of inflammation-related cytokine mRNA; type: cell-based; settings: Ps<0.01
# Experimental: Primary human cell culture: the remaining limbus of the donor cornea used in a surgery was treated with an ophthalmic instrument into a tissue block carrying corneal stem cells, the tissue block was pasted at the bottom of a cell culture dish, cultured in an SHEM medium, and placed in a cell culture incubator with a temperature of 37° C., CO2 content of 5% and humidity of 90%; primary human corneal epithelial cells crawling out of the limbal stem cells can be seen after 3-5 days; and the cells were grown to a fused state of 70%-90% for an experiment.
# Preparation of solution: (1) preparation of hypertonic liquid (500 mOsm): 90 mmol/L NaCl solution was added to a serum-free medium. (2) Preparation of a tested drug solution: 10 mg of the above prepared product was dissolved in 1 mL of 37° C. DMSO solution, prepared into […] mother liquor, and stored in a −20° C. refrigerator for later use; and the mother liquor was diluted with a serum-free medium to prepare drug solutions having final concentrations of 1 μmol/L and 10 μmol/L for an experiment. […]
# (§1) Real-time PCR (RT-PCR): mRNA expressions of different groups of IL-6, IL-1β, IL-17A, IL-18, TNF-α, and NLRP3 were detected using RT-PCR. […] RNA was extracted from the cells according to an instruction of an RNA extraction kit, and a total amount of RNAs required to synthesize a cDNA template was calculated based on a measured concentration. cDNA was synthesized by an M-MLV reverse transcription kit, and the cDNA obtained by reverse transcription was stored at −20° C. for subsequent PCR amplification. […]
# (§2) A SYBR Green fluorescent dye method was used for RT-PCR detection. A relatively quantified mRNA expression quantity of a target gene was calculated. […]
# Real-time PCR (RT-PCR): mRNA expressions of different groups of IL-6, IL-1β, IL-17A, IL-18, TNF-α, and NLRP3 were detected using RT-PCR. […]
# [5] = test system: SV40 corneal epithelial cells; experiment: as above; type: cell-based, human; settings: hypertonic model 500 mOsm, four hours of administration, vs. HS group, Ps<0.01
# Experimental: SV40 cell culture: SV40 cells were cultured in a DMEM/F12 medium containing 10% fetal bovine serum, and added with insulin and a human epidermal growth factor at the same time, so that a final concentration of insulin in the medium was 5 μg/mL and a final concentration of the human epidermal growth factor was 10 ng/mL. The medium was routinely subcultured in a cell culture incubator with a temperature of 37° C., CO2 content of 5% and a humidity of 90%. The cells were grown to a fused state of 70%-90% for an experiment.
# Preparation of solution: (1) preparation of hypertonic liquid (500 mOsm): 90 mmol/L NaCl solution was added to a serum-free medium. […]
# as §1, §2
structure (smiles),measurement,setting,value
COc1ccc2cc3[n+](cc2c1OC)CCc1cc2c(cc1-3)OCO2 [Berberine base],C,[1]; 0:00,24.45 µg/mL
same,Purity,[1]; 0:00,97.35%
same,C,"[1]; 40° C. (in dark place), 8:00",22.62 µg/mL
same,Purity,"[1]; 40° C. (in dark place), 8:00",97.17%
same,C,"[1]; 40° C. (in dark place), Day 5",22.41 µg/mL
same,Purity,"[1]; 40° C. (in dark place), Day 5",97.02%
same,C,"[1]; 40° C. (in dark place), Day 10",10.35 µg/mL
same,Purity,"[1]; 40° C. (in dark place), Day 10",96.86%
same,C,"[1]; 60° C. (in dark place), 8:00",22.45 µg/mL
same,Purity,"[1]; 60° C. (in dark place), 8:00",97.17%
same,C,"[1]; 60° C. (in dark place), Day 5",21.31 µg/mL
same,Purity,"[1]; 60° C. (in dark place), Day 5",96.96%
same,C,"[1]; 60° C. (in dark place), Day 10",9.68 µg/mL
same,Purity,"[1]; 60° C. (in dark place), Day 10",95.99%
same,C,"[1]; Illumination, 8:00",21.84 µg/mL
same,Purity,"[1]; Illumination, 8:00",97.62%
same,C,"[1]; Illumination, Day 5",14.70 µg/mL
same,Purity,"[1]; Illumination, Day 5",88.52%
same,C,"[1]; Illumination, Day 10",7.02 µg/mL
same,Purity,"[1]; Illumination, Day 10",74.89%
same,Weight gain percentage of Day 5 (%),[2],4.2%
same,Weight gain percentage of Day 10 (%),[2],6.7%
same,Concentration in solvent,[3],24450 ng/mL
"CC(C)(O)c1ccccc1CC[C@@H](SCC1(CC(=O)[O-])CC1)c1cccc(/C=C/c2ccc3ccc(Cl)cc3n2)c1.COc1ccc2cc3[n+](cc2c1OC)CCc1cc2c(cc1-3)OCO2 [Montelukast berberine double salt, (R,E)-2-(1-(((1-(3-(2-(7-chloroquinoline-2-yl)vinyl)phenyl)-3-(2-(2-hydroxypropyl-2-yl)phenyl)propyl)thio)methyl)cyclopropyl)acetic acid and 9,10-dimethoxy-5,6-dihydro-[1,3]dioxocyclo [4,5-g]isoquino[3,2-a]isoquinolin-7-onium conjugate]",inflammation-related cytokines (mRNA expression),"[4]; 0.5 μmol/L, compared with single drug of berberine and montelukast of the same concentration",significantly reduce
same,inflammation-related cytokines (mRNA expression),"[4]; 1 μmol/L, hypertonic model 500 mOsm, four hours of administration, vs. HS group",significantly reduce
same,inflammation-related cytokines (mRNA expression),"[4]; 10 μmol/L, hypertonic model 500 mOsm, four hours of administration, vs. HS group",significantly reduce
same,Weight gain percentage of Day 5 (%),[2],3.3%
same,Weight gain percentage of Day 10 (%),[2],4.9%
same,inflammation-related cytokines (mRNA expression),[5]; 1 μmol/L,significantly reduce
same,inflammation-related cytokines (mRNA expression),[5]; 10 μmol/L,significantly reduce
CC(C)(O)c1ccccc1CC[C@@H](SCC1(CC(=O)O)CC1)c1cccc(/C=C/c2ccc3ccc(Cl)cc3n2)c1 [Montelukast],Weight gain percentage of Day 5 (%),[2],4.5%
same,Weight gain percentage of Day 10 (%),[2],5.3%
